Like-named read-outs stand apart in the source and are kept apart here.

The test system of data set [1] is rNeu^+ tumor cells. In kind it is in vivo, mice. How it is done: FIG. 6: Effect of virosome treatment on recently implanted tumors. 2×10^5 rNeu^+ tumor cells were injected s.c. and treatment was started 3-5 days later. I.v. injections of the different virosome formulations such as Doxo-Vir, Fab′-Doxo-Vir, Fab′-Vir and free Doxo (all at a concentration of 150 μg/ml doxorubicin) were performed at the indicated time points (arrows) for a period of three weeks. Tumor size was assessed twice a week during therapy and weekly in the follow-up period. Tumor formation (defined as volume >90 mm^3) in the different groups and the follow-up of >12 weeks is shown. Statistical analysis using Mann-Whitney rank test was performed. Control groups (◯), free Doxo (▾), Doxo-Vir (♦), Fab′-Vir (●), Fab′-Doxo-Vir (▪)
In another preferred embodiment of the invention, conjugated virosomes are used to arrest the metastatic spread of tumors. […] The effect of Fab′ conjugated virosomes on the growth of tumor metastases is assessed as follows. […] Tumor formation is assessed by palpation followed by measurement of tumor size as described in the previous example. […]
For the micrometastatic stage of tumor formation, 0.2×10^6 tumor cells are injected s.c. and treatment is started 3-5 days later. […] Tumor formation is assessed by palpation followed by measurement of tumor size as described in the previous example. […]

For data set [2], the system named is rNeu^+ (NF 9006) tumors. In kind it is in vivo, mice. The conditions noted are these: established rNeu+ tumors, i.v. every 3-4 days; comparison between treatments.
The conditions of data set [3]: cited from earlier work.

As to `COc1cccc2c1C(=O)c1c(O)c3c(c(O)c1C2=O)C[C@@](O)(C(=O)CO)C[C@@H]3O[C@H]1C[C@H](N)[C@H](O)[C@H](C)O1` [free Doxo, doxorubicin], the “median time to tumor formation” value in data set [1] (2×10^5 rNeu+ cells s.c., treatment from day 3-5, 9 injections over 3 weeks, tumor formation >90 mm^3) worked out at 20 days. The tumor development entry in data set [1] (within 4 weeks after tumor cell inoculation, all mice of the group) is given as “developed tumors”. Also, the “tumor progression compared with another treatment group” value in data set [2] was “no significant difference in tumor progression”. Besides, the tolerated dose in data set [3] (SCID mice) is 2 to 3 mg/kg; in data set [3] (normal mice) it was 6 mg/kg.

Source of the values: patent US20040028687A1, “Methods and compositions for the targeted delivery of therapeutic substances to specific cells and tissues” (priority 2002, published 2004).
